Where two headings read alike, the source gives them in different places.
Legend:
HepG2 [1] = experiment: MTT cytotoxicity assay, HepG2; settings: Homo sapiens, HepG2, 24 h, read-out: In vitro Cytotoxicity (IC50, μM) HepG2
Text: (§1) Two human cancer cell lines, HepG2 (human hepatocellular carcinoma) and MCF-7 (human breast adenocarcinoma), were used to test the produced compounds' cytotoxic activities. […] HepG2 cells, a hepatocellular carcinoma model, are widely used for studying VEGF/VEGFR-2-mediated angiogenesis and tumor progression.[76,77] Thus, these models provided a relevant system for assessing the potential EGFR/VEGFR inhibitory effects of our synthesized compounds. Accordingly, provide complementary systems for assessing the multitarget inhibitory potential of the synthesized pyrazole–thiophene hybrids against EGFR- and VEGFR-2-mediated oncogenic pathways. […] The cytotoxic activity of the synthesized pyrazole–thiophene derivatives was initially evaluated against two standard human cancer cell lines: MCF-7 and HepG2, which are widely used in cytotoxicity screening using the 3-(4,5-dimethylthiazol-2-yl)-2,5-diphenyltetrazolium bromide (MTT) assay (SI data, S1).[81–84] […]
(§2) S1. Analysis of Cytotoxic Inhibitory Concentration 50 (IC 50) with respect to HepG2 and MCF-7 The cytotoxic activity of the synthesized compounds was evaluated against MCF-7 and HepG2 cell lines using the 3-(4,5-dimethylthiazol-2-yl)-2,5-diphenyltetrazolium bromide (MTT) assay 2-5.
(§3) 100 µg/mL streptomycin, then seeded in 96 -well plates (1 × 10⁴ cells/well) and incubated at 37 °C with 5% CO₂ for 48 h. Test compounds, prepared by serial dilutio n, were added for 24 h, after which 20 µL of MTT solution (5 mg/mL) was introduced and incubated for 4 h. Formazan crystals were dissolved […]
(§4) Cell viability was ca lculated relative to untreated controls, and IC₅₀ values were obtained from dose – response curves by nonlinear regression. […]

MCF-7 [2] = experiment: MTT cytotoxicity assay, MCF-7; settings: Homo sapiens, MCF7, 24 h, read-out: In vitro Cytotoxicity (IC50, μM) MCF-7
Text: as §1, §2, §3, §4

EGFR mutant (T790M) = target: T1, EGFR mutant (T790M) (Homo sapiens, UniProt P00533, T790M); experiment: EGFR enzyme inhibition assay (mutant T790M), Kinase-Glo kit; type: biochemical
T1 construct: purchased #40323
T1 sequence (P00533 25-1210 T790M): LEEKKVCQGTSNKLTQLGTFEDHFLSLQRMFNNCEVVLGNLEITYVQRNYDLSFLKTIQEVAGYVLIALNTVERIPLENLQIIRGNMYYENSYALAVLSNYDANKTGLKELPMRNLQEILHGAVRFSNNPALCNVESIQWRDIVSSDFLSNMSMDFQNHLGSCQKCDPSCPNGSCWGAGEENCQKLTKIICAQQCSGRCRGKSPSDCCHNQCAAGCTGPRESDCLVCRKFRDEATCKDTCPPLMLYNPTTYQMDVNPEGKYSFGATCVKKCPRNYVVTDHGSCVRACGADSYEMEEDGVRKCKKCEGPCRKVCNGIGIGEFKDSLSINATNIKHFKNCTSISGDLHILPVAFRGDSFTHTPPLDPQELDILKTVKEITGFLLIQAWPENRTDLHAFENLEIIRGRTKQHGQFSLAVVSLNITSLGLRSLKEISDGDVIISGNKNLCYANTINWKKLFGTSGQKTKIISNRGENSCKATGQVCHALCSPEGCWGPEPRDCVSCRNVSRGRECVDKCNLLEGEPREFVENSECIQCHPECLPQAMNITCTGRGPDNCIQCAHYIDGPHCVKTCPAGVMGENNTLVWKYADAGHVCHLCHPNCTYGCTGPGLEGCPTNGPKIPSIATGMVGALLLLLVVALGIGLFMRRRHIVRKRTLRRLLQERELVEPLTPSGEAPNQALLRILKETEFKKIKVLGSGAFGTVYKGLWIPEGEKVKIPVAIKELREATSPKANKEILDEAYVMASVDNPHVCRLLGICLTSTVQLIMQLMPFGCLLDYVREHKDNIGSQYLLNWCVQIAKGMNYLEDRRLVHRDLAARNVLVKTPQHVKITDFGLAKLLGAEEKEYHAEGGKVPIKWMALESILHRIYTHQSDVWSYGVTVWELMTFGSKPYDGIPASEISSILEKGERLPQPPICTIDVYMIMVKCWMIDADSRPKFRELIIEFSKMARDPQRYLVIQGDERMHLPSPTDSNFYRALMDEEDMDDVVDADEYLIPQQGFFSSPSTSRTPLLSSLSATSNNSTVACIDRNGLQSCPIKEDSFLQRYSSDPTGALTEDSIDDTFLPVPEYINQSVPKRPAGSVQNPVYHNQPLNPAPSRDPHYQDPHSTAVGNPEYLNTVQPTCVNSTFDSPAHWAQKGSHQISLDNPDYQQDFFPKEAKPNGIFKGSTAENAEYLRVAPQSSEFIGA
Method: (§5) Supporting Information (SI)
(§6) Formazan crystals were dissolved
(§7) response curves by nonlinear regression.
(§8) performed in 96 -well plates containing purified recombinant EGFR. Each we ll received 25 µL of
(§9) control). […] The reaction was initiated
(§10) After incubation, 50 µL of
(§11) min. Luminescence was then recorded using a microplate ELISA reader. Erlotinib served as t he
(§12) incubated for 5 min at room temperature.

VEGFR-2 = target: T2, VEGFR-2 (Homo sapiens, UniProt P35968); experiment: VEGFR-2 enzyme inhibition assay (HTScan Tyrosine Kinase Assay); type: biochemical
T2 construct: purchased Cell Signaling Technology #7788
T2 sequence (P35968 789-1356 limits assumed): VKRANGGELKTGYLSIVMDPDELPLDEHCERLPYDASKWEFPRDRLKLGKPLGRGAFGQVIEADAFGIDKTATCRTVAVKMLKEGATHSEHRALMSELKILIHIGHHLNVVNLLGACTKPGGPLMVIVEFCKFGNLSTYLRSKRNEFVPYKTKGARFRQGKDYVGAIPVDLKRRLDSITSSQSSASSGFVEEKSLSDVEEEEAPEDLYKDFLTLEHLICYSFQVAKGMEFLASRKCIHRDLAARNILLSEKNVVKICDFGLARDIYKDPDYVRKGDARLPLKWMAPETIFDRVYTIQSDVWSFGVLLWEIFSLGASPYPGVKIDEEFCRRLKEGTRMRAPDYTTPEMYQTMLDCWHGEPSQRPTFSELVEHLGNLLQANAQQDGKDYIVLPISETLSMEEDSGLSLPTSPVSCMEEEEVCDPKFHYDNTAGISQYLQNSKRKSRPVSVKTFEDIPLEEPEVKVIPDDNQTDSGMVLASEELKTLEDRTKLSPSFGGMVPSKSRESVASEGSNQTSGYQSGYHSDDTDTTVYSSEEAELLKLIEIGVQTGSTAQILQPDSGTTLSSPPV

wild-type EGFR = target: T3, wild-type EGFR (Homo sapiens, UniProt P00533); experiment: EGFR enzyme inhibition assay (wild type), Kinase-Glo kit; type: biochemical
T3 construct: purchased #40321
T3 sequence (P00533 25-1210): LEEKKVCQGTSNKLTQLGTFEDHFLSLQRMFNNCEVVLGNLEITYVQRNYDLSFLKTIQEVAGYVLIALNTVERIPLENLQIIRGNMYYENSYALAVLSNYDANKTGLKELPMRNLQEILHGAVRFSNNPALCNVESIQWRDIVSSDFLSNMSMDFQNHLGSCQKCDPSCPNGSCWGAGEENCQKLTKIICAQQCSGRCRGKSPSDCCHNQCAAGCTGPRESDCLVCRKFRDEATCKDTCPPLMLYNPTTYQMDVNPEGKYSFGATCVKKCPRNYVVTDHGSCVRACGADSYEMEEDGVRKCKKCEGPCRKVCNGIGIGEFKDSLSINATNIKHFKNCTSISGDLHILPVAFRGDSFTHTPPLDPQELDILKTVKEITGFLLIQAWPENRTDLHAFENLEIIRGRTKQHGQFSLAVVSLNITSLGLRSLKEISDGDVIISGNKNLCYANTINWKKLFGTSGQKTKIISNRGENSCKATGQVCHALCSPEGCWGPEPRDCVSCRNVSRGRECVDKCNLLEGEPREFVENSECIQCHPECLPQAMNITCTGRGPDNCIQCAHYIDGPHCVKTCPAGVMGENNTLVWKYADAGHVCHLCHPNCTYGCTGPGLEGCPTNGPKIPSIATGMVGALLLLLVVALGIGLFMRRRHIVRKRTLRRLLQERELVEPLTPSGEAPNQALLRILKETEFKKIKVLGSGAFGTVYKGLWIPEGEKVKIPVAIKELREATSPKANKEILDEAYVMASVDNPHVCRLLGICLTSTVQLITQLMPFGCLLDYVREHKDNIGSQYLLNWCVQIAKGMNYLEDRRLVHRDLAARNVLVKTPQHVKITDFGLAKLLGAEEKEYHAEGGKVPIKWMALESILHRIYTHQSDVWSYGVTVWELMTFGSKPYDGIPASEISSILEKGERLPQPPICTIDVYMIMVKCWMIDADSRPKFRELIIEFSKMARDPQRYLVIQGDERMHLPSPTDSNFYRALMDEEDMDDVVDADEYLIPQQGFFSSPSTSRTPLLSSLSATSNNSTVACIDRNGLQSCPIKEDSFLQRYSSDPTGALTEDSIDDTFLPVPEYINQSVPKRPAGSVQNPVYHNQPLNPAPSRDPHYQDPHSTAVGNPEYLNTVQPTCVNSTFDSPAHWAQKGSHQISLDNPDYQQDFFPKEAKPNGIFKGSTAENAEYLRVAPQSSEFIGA
Method: as §5, §6, §7, §8, §9, §10, §11, §12

MCF-7 cells [3] = experiment: Annexin V-FITC/PI apoptosis and necrosis assay; type: cell-based, human; settings: MCF-7, 10 µM, 48 h
Method: Flow cytometric assay and the pro-apoptotic activity of compound 14 were assessed using the Annexin V-FITC Apoptosis Detection Kit (BioVision, USA; Cat. No. K101-25). The assay of compound 14 was performed in accordance with the reported procedure,[87,88] (SI data, S3). […]
The pro-apoptotic activity of compound 14 was assessed using the Annexin V -FITC Apoptosis Detection Kit (BioVision, USA; Cat. No. K101 -25) according to the manufacturer’s instructions.
MCF-7 cells (1–5 × 10⁵) were seeded and treated with 10 µM of 14 for 48 h. After treatment, both floating and adherent cells were collected by gentle trypsinization, washed with serum -containing medium, and resuspended in 500 µL of 1× Binding Buffer. Each sample was stained with 5 µL Annexin V-FITC and 5 µL propidium iodide (50 µg/mL) for 5 min at room temperature in the dark, then analyzed by flow cytometry. […]

MCF-7 cells [4] = experiment: Cell cycle analysis by PI flow cytometry; type: cell-based, human; settings: MCF-7, 10 µM, 48 h
Method: S3. Assessment of the Impact of Compound 14 on Cell Cycle Progression and Apoptosis in MCF - […]
MCF-7 breast cancer cells were seeded under standard culture conditions and treated with 10 µM of compound 14 for 48 h. After treatment, cells were harvested by trypsinization, washed with PBS, and fixed in ice-cold 66% ethanol at 4 °C for at least 2 h. Prior to analysis, cells were washed again with PBS and stained using the Propidium Iodide Flow Cytometry Kit ( ab139418, Abcam, UK) according to the manufacturer’s instructions. Staining was carried out with PI and RNase at 37 °C in the dark for 30 min. Cell cycle distribution (G0/G1, S, and G2/M phases) was then determined by measuring PI fluorescence intensity in the FL2 channel 8. […]

HepG2 [5] = settings: reference drug value; read-out: In vitro Cytotoxicity (IC50, μM) HepG2; cited from earlier work
MCF-7 [6] = settings: reference drug value; read-out: In vitro Cytotoxicity (IC50, μM) MCF-7; cited from earlier work
[7] = system: human pancreatic tumor (AsPC-1) and human glioblastoma (U251); parameters: method as in PMID 26492233; settings: read-out: IC50 against AsPC-1 and U251; cited from earlier work

| Structure (SMILES) | IC50 (HepG2 [1]) [µM] | IC50 (MCF-7 [2]) [µM] | other results |
| --- | --- | --- | --- |
| O=C(C=Cc1cccs1)c1ccc([N+](=O)[O-])cc1 [Compound 1, 1-(4-nitrophenyl)-3-(thiophen-2-yl)prop-2-en-1-one] | 90.5 | > 100 | – |
| O=[N+]([O-])c1ccc(C2=NNC(c3cccs3)C2)cc1 (stereo not drawn) [Compound 2, 3-(4-nitrophenyl)-5-(thiophen-2-yl)-4,5-dihydro-1H-pyrazole] | 8.86 | 6.57 | IC50 (EGFR mutant (T790M)): 65.1 µM; IC50 (VEGFR-2): 889 µM; IC50 (wild-type EGFR): 59.5 µM |
| CC(=O)N1N=C(c2ccc([N+](=O)[O-])cc2)CC1c1cccs1 (stereo not drawn) [Compound 3, 1-(3-(4-nitrophenyl)-5-(thiophen-2-yl)-4,5-dihydro-1H-pyrazol-1-yl) ethan-1-one] | 53.2 | 43.6 | – |
| O=CN1N=C(c2ccc([N+](=O)[O-])cc2)CC1c1cccs1 (stereo not drawn) [Compound 4, 3-(4-nitrophenyl)-5-(thiophen-2-yl)-4,5-dihydro-1H-pyrazole-1-carbaldehyde] | 84 | 92.1 | – |
| O=[N+]([O-])c1ccc(C2=Nc3ccccc3NC(c3cccs3)C2)cc1 (stereo not drawn) [Compound 5, 4-(4-nitrophenyl)-2-(thiophen-2-yl)-2,3-dihydro-1H-benzo[b][1,4] diazepine] | 62.6 | 75.5 | – |
| N#Cc1c(-c2cccs2)cc(-c2ccc([N+](=O)[O-])cc2)[nH]c1=O [Compound 6, 6-(4-nitrophenyl)-2-oxo-4-(thiophen-2-yl)-1,2-dihydropyridine-3-carbonitrile] | 28.9 | 23.3 | – |
| O=C(CCl)N1N=C(c2ccc([N+](=O)[O-])cc2)CC1c1cccs1 (stereo not drawn) [Compound 7, 2-chloro-1-(3-(4-nitrophenyl)-5-(thiophen-2-yl)-4,5-dihydro-1H-pyrazol-1-yl)ethan-1-one] | 78.1 | 75 | – |
| O=C(O)c1ccccc1C(=O)N1N=C(c2ccc([N+](=O)[O-])cc2)CC1c1cccs1 (stereo not drawn) [Compound 8, 2-(3-(4-nitrophenyl)-5-(thiophen-2-yl)-4,5-dihydro-1H-pyrazole-1-carbonyl)benzoic acid] | 13.5 | 8.08 | IC50 (EGFR mutant (T790M)): 121 µM; IC50 (VEGFR-2): 85.1 µM; IC50 (wild-type EGFR): 66.6 µM |
| O=C(O)CCC(=O)N1N=C(c2ccc([N+](=O)[O-])cc2)CC1c1cccs1 (stereo not drawn) [Compound 9, 4-(3-(4-nitrophenyl)-5-(thiophen-2-yl)-4,5-dihydro-1H-pyrazol-1-yl)-4-oxobutanoic acid] | 22.6 | 17.8 | – |
| O=C(O)C=CC(=O)N1N=C(c2ccc([N+](=O)[O-])cc2)CC1c1cccs1 (stereo not drawn) [Compound 10, 4-(3-(4-nitrophenyl)-5-(thiophen-2-yl)-4,5-dihydro-1H-pyrazol-1-yl)-4-oxobut-2-enoic acid] | 36.4 | 32.6 | – |
| O=[N+]([O-])c1ccc(C2=NN(CN3N=C(c4ccc([N+](=O)[O-])cc4)CC3c3cccs3)C(c3cccs3)C2)cc1 (stereo not drawn) [Compound 11, bis(3-(4-nitrophenyl)-5-(thiophen-2-yl)-4,5-dihydro-1H-pyrazol-1-yl)methane] | 74.2 | 87.4 | – |
| COC(=O)/C=C(\C(=O)OC)N1N=C(c2ccc([N+](=O)[O-])cc2)CC1c1cccs1 (stereo not drawn) [Compound 12, dimethyl 2-(3-(4-nitrophenyl)-5-(thiophen-2-yl)-4,5-dihydro-1H-pyrazol-1-yl)maleate] | 59.3 | 51.7 | – |
| O=C(O)n1nc(-c2ccc([N+](=O)[O-])cc2)cc1-c1cccs1 [Compound 13, 3-(4-nitrophenyl)-5-(thiophen-2-yl)-1H-pyrazole-1-carboxylic acid] | 41.4 | 37.1 | – |
| CC(=O)C1C(c2ccc([N+](=O)[O-])cc2)=NN(C=O)C1c1cccs1 (stereo not drawn) [Compound 14, 4-Acetyl-3-(4-nitrophenyl)-5-(thiophen-2-yl)-4,5-dihydro-1H-pyrazole-1-carbaldehyde] | 19.6 | 12.9 | IC50 (EGFR mutant (T790M)): 48.3 µM; Apoptosis Late (MCF-7 cells [3]; control 0.14%): 7.1%; Apoptosis Early (MCF-7 cells [3]; control 0.69%): 15.02%; Necrosis (MCF-7 cells [3]; control 2.36%): 4.2%; Cell cycle analysis Comment (MCF-7 cells [4]): Cell cycle arrest at G1phase; Cell cycle analysis %G2/M (MCF-7 cells [4]; control 16.74%): 6.62%; Cell cycle analysis %S (MCF-7 cells [4]; control 27.95%): 19.22%; Cell cycle analysis %G0-G1 (MCF-7 cells [4]; control 55.31%): 74.16%; IC50 (VEGFR-2): 327 µM; IC50 (wild-type EGFR): 47.6 µM |
| COc1cccc2c1C(=O)c1c(O)c3c(c(O)c1C2=O)C[C@@](O)(C(=O)CO)C[C@@H]3O[C@H]1C[C@H](N)[C@H](O)[C@H](C)O1 [Doxorubicin, doxorubicin, reference compound] | 4.5 | – | – |
| C#Cc1cccc(Nc2ncnc3cc(OCCOC)c(OCCOC)cc23)c1 [Erlotinib, erlotinib] | – | – | IC50 (HepG2 [5]): 7.73 µM; IC50 (MCF-7 [6]): 8.2 µM |
| Cc1ccc(-c2nnc(SCC(=O)N3N=C(c4cccs4)CC3c3ccc(Cl)cc3)o2)cc1 (stereo not drawn) [compound II] | – | – | IC50 [7]: 12 to 17 µM |

Source: PMC12541710, “Design, synthesis, and anticancer evaluation of novel pyrazole–thiophene hybrid derivatives as multitarget inhibitors of wild EGFR, mutant (T790M) EGFR, and VEGFR-2” (RSC Advances, 2025)
